Source: article PMC10398712 (Journal of medicinal chemistry, 2023)
Read-outs that look alike come from different tables or passages of the source. Marks after values point to notes of the source that are not given here. Residues, ends and D or L forms follow the SMILES beside them. *: point of attachment. Cbz = O=C(OCc1ccccc1)*

Key:
BRD4 = BRD4 (Homo sapiens, UniProt O60885); assay: Western blot of BRD4; settings: for effect of pretreatment on BRD4 degradation induced by 13: pretreated 1 h, then 13 for 3 h; for degradation of BRD4: 24 h
[1] = cited from earlier work
[2] = in human blood; cited from earlier work
[3] = in-vivo in humans; cited from earlier work
CRBN = settings: cited from earlier work
IKZF1 = assay: Western blot of IKZF1 in MV4; format: cell-based, human; settings: MV4;11 cells, 10 and 1 μM, 24 h
IKZF3 = assay: Western blot of IKZF3 in MV4; format: cell-based, human; settings: MV4;11 cells, 10 and 1 μM, 24 h
GSPT1 = assay: Western blot of GSPT1 in MV4; format: cell-based, human; settings: MV4;11 cells, 10 and 1 μM, 24 h
[4] = ring opening hydrolysis stability in buffer with different pHs; format: physicochemical; settings: for pH=1.0, ring opening hydrolysis, percent compound remaining: pH 1.0, after 24 h; for pH=7.4, ring opening hydrolysis, percent compound remaining: pH 7.4 buffer, after 24 h, 37°C
CRBN-DDB1 complex = CRBN-DDB1 complex (Homo sapiens, UniProt Q96SW2); assay: fluorescence polarization; format: binding; settings: for displacement of fluorescence probe (relative binding): single concentration of 1 μM, tested three times
MV4;11 cells [5] = assay: AlamarBlue cell viability; format: cell-based, human; settings: 72 h
caspase 3 cleavage = assay: Western blot of caspase 3 and cleaved caspase 3 in MV4; settings: MV4;11 cells, 10 nM to 10 μM, 24 h
MV4;11 cells [6] = assay: flow cytofluorimetric cell cycle analysis; format: cell-based, human; settings: 48 h
MV4;11 cells [7] = assay: flow cytofluorimetric apoptosis analysis; format: cell-based, human; settings: 48 h

CRBN-DDB1 complex, sequence (Q96SW2 whole entry): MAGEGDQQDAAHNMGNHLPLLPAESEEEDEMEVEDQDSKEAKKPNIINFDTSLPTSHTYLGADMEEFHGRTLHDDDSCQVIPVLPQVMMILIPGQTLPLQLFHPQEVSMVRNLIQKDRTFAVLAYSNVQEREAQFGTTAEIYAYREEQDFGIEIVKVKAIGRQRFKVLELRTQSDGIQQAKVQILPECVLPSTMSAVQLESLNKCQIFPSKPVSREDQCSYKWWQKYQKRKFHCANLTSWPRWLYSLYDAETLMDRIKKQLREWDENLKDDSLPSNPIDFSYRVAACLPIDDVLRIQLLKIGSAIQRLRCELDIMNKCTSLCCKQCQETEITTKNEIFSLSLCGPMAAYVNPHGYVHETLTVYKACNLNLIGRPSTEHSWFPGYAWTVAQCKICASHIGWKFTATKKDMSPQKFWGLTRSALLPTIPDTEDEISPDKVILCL
CRBN-DDB1 complex, sequence (Q16531 whole entry partner): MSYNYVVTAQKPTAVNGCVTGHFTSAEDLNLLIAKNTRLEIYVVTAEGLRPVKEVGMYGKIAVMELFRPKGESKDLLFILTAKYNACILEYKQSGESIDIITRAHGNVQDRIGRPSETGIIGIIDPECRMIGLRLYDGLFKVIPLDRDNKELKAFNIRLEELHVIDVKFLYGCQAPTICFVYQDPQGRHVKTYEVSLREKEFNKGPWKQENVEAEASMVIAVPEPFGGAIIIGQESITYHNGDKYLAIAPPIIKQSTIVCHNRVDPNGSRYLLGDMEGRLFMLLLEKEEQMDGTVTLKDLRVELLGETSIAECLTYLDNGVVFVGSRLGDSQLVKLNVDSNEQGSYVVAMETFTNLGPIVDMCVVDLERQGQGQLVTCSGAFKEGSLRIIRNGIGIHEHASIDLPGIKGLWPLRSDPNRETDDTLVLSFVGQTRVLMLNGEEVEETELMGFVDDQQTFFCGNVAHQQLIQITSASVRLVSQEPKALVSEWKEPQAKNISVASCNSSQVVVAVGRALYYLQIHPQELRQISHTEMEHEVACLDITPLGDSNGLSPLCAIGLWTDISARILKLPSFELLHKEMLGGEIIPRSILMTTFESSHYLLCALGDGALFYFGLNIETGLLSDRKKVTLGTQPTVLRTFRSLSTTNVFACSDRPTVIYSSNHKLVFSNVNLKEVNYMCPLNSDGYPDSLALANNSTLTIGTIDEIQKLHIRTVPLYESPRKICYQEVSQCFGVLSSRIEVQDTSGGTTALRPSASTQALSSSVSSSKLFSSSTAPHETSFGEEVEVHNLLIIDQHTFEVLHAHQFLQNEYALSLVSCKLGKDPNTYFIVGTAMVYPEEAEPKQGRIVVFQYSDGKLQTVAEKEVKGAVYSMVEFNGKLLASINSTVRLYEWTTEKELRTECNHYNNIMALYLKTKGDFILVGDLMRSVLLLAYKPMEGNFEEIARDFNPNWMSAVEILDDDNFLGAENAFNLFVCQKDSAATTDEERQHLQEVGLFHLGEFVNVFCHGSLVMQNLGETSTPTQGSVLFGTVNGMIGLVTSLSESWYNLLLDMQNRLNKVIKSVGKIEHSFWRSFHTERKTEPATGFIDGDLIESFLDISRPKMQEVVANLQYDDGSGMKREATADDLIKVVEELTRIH

Structure (SMILES): NS(=O)(=O)OC[C@@H]1C[C@@H](n2ccc3c(N[C@H]4CCc5ccccc54)ncnc32)C[C@@H]1O [MLN4924, reference compound]
- effect of pretreatment on BRD4 degradation induced by 13 (BRD4; MV4;11 cells): abolished the BRD4 degradation induced by 13

Structure (SMILES): [2H]C1(N2C(=O)c3ccccc3C2=O)CCC(=O)NC1=O (stereo not drawn) [Compound 1D]
- racemization relative to thalidomide [1]: about five times slower than thalidomide

Structure (SMILES): O=C1CCC(N2C(=O)c3ccccc3C2=O)C(=O)N1 (stereo not drawn) [thalidomide]
- racemization half-life [2]: ~ 2.0 h
- racemization half-life [3]: ~ 5.0 h

Structure (SMILES): CC(C)C[C@@H](C=O)NC(=O)[C@H](CC(C)C)NC(=O)[C@H](CC(C)C)NC(=O)OCc1ccccc1 [MG132, reference compound] (Cbz-Leu-Leu-Leu-aldehyde)
- effect of pretreatment on BRD4 degradation induced by 13 (BRD4; MV4;11 cells): abolished the BRD4 degradation induced by 13

Structure (SMILES): Cc1sc2c(c1C)C(c1ccc(Cl)cc1)=N[C@@H](CC(=O)NCCCC#Cc1cccc(N3CCC(=O)NC3=O)c1C)c1nnc(C)n1-2 [Compound 12C, (S)-2-(4-(4-chlorophenyl)-2,3,9-trimethyl-6H-thieno[3,2-f][1,2,4]triazolo[4,3-a][1,4]diazepin-6-yl)-N-(5-(3-(2,4-dioxotetrahydropyrimidin-1(2H)-yl)-2-methylphenyl)pent-4-yn-1-yl)acetamide]
- degradation of BRD4 (BRD4; in MV4;11 and LNCAP, 1.0 and 0.1 μM): showed obviously BRD4 degradation activity

Structure (SMILES): O=C1CC[C@H](N2C(=O)c3ccccc3C2=O)C(=O)N1 (single isomer, unassigned) [(S)-enantiomeric thalidomide]
- binding affinity to CRBN relative to the (R)-enantiomer (CRBN): at least 10 fold

Structure (SMILES): CCNC(=O)COc1cccc(N2CCC(=O)NC2=O)c1C [Compound 10, 2-(3-(2,4-dioxotetrahydropyrimidin-1(2H)-yl)-2-methylphenoxy)-N-ethylacetamide]
- degradation of IKZF1 (IKZF1): do not induce the degradation
- degradation of IKZF3 (IKZF3): do not induce the degradation
- degradation of GSPT1 (GSPT1): do not induce the degradation
- pH=1.0, ring opening hydrolysis, percent compound remaining [4]: >99%
- pH=7.4, ring opening hydrolysis, percent compound remaining [4]: >99%

Structure (SMILES): COc1ccccc1N1CCC(=O)NC1=O [Compound 3C, 1-(2-methoxyphenyl)dihydropyrimidine-2,4(1H,3H)-dione]
- displacement of fluorescence probe (relative binding) (CRBN-DDB1 complex): decreased the binding

Structure (SMILES): Nc1cccc2c1CN(C1CCC(=O)NC1=O)C2=O (stereo not drawn) [Lenalidomide, lenalidomide, reference compound]
- pH=1.0, ring opening hydrolysis, percent compound remaining [4]: >99%
- pH=8.8, ring opening hydrolysis, percent compound remaining ([4]; pH 8.8, after 24 h): 0%

Structure (SMILES): Cc1c(OCC(=O)N2CCCCC2)cccc1N1CCC(=O)NC1=O [Compound 9, 1-(2-methyl-3-(2-oxo-2-(piperidin-1-yl)ethoxy)phenyl)dihydropyrimidine-2,4(1H,3H)-dione]
- anti-proliferation activity (MV4;11 cells [5]; at up to 100 μM): did not show any anti-proliferation activity
- degradation of IKZF1 (IKZF1): do not induce the degradation
- effect of pretreatment on BRD4 degradation induced by 13 (BRD4; MV4;11 cells): abolished the BRD4 degradation induced by 13
- degradation of IKZF3 (IKZF3): do not induce the degradation
- degradation of GSPT1 (GSPT1): do not induce the degradation
- pH=1.0, ring opening hydrolysis, percent compound remaining [4]: >99%
- pH=7.4, ring opening hydrolysis, percent compound remaining [4]: >99%

Structure (SMILES): Cc1c(C#CCNC(=O)OC(C)(C)C)cccc1N1CCC(=O)NC1=O [Compound 6F, tert-butyl (3-(3-(2,4-dioxotetrahydropyrimidin-1(2H)-yl)-2-methylphenyl)prop-2-yn-1-yl)carbamate]
- degradation of IKZF1 (IKZF1): do not induce the degradation
- degradation of IKZF3 (IKZF3): do not induce the degradation
- degradation of GSPT1 (GSPT1): do not induce the degradation
- pH=1.0, ring opening hydrolysis, percent compound remaining [4]: >99^[g] %
- pH=7.4, ring opening hydrolysis, percent compound remaining [4]: >99%

Structure (SMILES): Cc1sc2c(c1C)C(c1ccc(Cl)cc1)=N[C@@H](CC(=O)NC1CCN(C(=O)COc3cccc(N4CCC(=O)NC4=O)c3C)CC1)c1nnc(C)n1-2 [Compound 13, (S)-2-(4-(4-chlorophenyl)-2,3,9-trimethyl-6H-thieno[3,2-f][1,2,4]triazolo[4,3-a][1,4]diazepin-6-yl)-N-(1-(2-(3-(2,4-dioxotetrahydropyrimidin-1(2H)-yl)-2-methylphenoxy)acetyl)piperidin-4-yl)acetamide]
- caspase 3 cleavage (caspase 3 cleavage): successful in inducing caspase 3 cleavage
- cell cycle effect (MV4;11 cells [6]): induce G1 phase arrest, decrease the cell population in S phase
- cell apoptosis (MV4;11 cells [7]): induced cell apoptosis in a dose-dependent manner

Structure (SMILES): O=C1CCN(c2ccccc2O)C(=O)N1 [Compound 3A, 1-(2-hydroxyphenyl)dihydropyrimidine-2,4(1H,3H)-dione]
- displacement of fluorescence probe (relative binding) (CRBN-DDB1 complex): almost completely lost the binding

Structure (SMILES): CC(=O)NCCC#Cc1cccc(N2CCC(=O)NC2=O)c1C [Compound 11, N-(4-(3-(2,4-dioxotetrahydropyrimidin-1(2H)-yl)-2-methylphenyl)but-3-yn-1-yl)acetamide]
- degradation of IKZF1 (IKZF1): do not induce the degradation
- degradation of IKZF3 (IKZF3): do not induce the degradation
- degradation of GSPT1 (GSPT1): do not induce the degradation
- pH=1.0, ring opening hydrolysis, percent compound remaining [4]: >99%
- pH=7.4, ring opening hydrolysis, percent compound remaining [4]: >99%

Structure (SMILES): Cc1sc2c(c1C)C(c1ccc(Cl)cc1)=N[C@@H](CC(=O)NC1CCN(C(=O)COc3cccc(N4CCC(=O)N(C)C4=O)c3C)CC1)c1nnc(C)n1-2 [Compound 13NT, (S)-2-(4-(4-chlorophenyl)-2,3,9-trimethyl-6H-thieno[3,2-f][1,2,4]triazolo[4,3-a][1,4]diazepin-6-yl)-N-(1-(2-(2-methyl-3-(3-methyl-2,4-dioxotetrahydropyrimidin-1(2H)-yl)phenoxy)acetyl)piperidin-4-yl)acetamide]
- degradation of BRD4 (BRD4; MV4;11 cells, several different concentrations): no degradation activity of BRD4 was observed

Structure (SMILES): Cc1ccccc1N1CCC(=O)NC1=O [Compound 3B, 1-(o-tolyl)dihydropyrimidine-2,4(1H,3H)-dione]
- increase of affinity by ortho-Me relative to parent PDHU 2 (CRBN-DDB1 complex; FP assay): about 2.5 times

Structure (SMILES): Cc1sc2c(c1C)C(c1ccc(Cl)cc1)=N[C@@H](CC(=O)OC(C)(C)C)c1nnc(C)n1-2 [JQ1, reference compound]
- anti-proliferation activity (MV4;11 cells [5]): weaker anti-proliferation activity than 13, but higher activity than compound 13NT
